From PMC5432002, “The active site structure and catalytic mechanism of arsenite oxidase” (Scientific Reports, 2017)

Biological target: T1, NT-26 arsenite oxidase (NT-26 Aio) (Pseudorhizobium banfieldiae, UniProt Q6VAL8)
T1 construct: gene aroA; A subunit with Mo site and [3Fe-4S], B subunit with Rieske [2Fe-2S]; with Arsenite oxidase subunit AioB
Type: binding

SMILES: O[As](O)O [arsenite]
- Mo....As EXAFS interaction: suggesting the presence of bound substrate or product through a Mo—O—As linkage
